In ChEMBL document CHEMBL1130925, “Anti-AIDS agents. 33. Synthesis and anti-HIV activity of mono-methyl substituted 3',4'-di-O-(-)-camphanoyl-(+)-cis-khellactone (DCK) analogues” (Bioorg Med Chem Lett, 1998):

Columns and labels:
[1] = tested on: H9; assay: Compound was evaluated for anti-HIV activity in acutely infected H9 Lymphocytes; assay type: functional, cell-based; details: Homo sapiens
[2] = tested on: H9; assay: Compound was evaluated for anti-HIV activity and the concentration that inhibits uninfected H9 cell growth by 50%; assay type: functional, cell-based; details: Homo sapiens
[3] = Compound was tested for anti HIV activity by measuring therapeutic index in H9 lymphocytes; IC50/EC50; assay type: organism-based; details: human immunodeficiency virus, H9 lymphocytes infected with HIV; read-out: TI

Structure (SMILES)	EC50 [1] [nM]	IC50 [2] [nM]	selectivity ratio [3]
Cc1cc2ccc(=O)oc2c2c1OC(C)(C)[C@H](OC(=O)C13CCC(C)(C(=O)O1)C3(C)C)[C@@H]2OC(=O)C12CCC(C)(C(=O)O1)C2(C)C (stereo not given in full)	150	33000	220
Cc1cc2c(c3oc(=O)ccc13)[C@@H](OC(=O)C13CCC(C)(C(=O)O1)C3(C)C)[C@@H](OC(=O)C13CCC(C)(C(=O)O1)C3(C)C)C(C)(C)O2 (stereo not given in full)	0.000423	> 157000	–
CC1(C)Oc2ccc3ccc(=O)oc3c2[C@@H](OC(=O)C23CCC(C)(C(=O)O2)C3(C)C)[C@H]1OC(=O)C12CCC(C)(C(=O)O1)C2(C)C (stereo not given in full)	–	–	137000

The remaining molecules from weak to strong by EC50 [1], led by results:

EC50 [1] [nM]	Structure (SMILES)	IC50 [2] [nM]	selectivity ratio [3]
0.000157	Cc1cc(=O)oc2c3c(ccc12)OC(C)(C)[C@H](OC(=O)C12CCC(C)(C(=O)O1)C2(C)C)[C@@H]3OC(=O)C12CCC(C)(C(=O)O1)C2(C)C (stereo not given in full)	> 157000	–
0.000157	Cc1cc2ccc3c(c2oc1=O)[C@@H](OC(=O)C12CCC(C)(C(=O)O1)C2(C)C)[C@@H](OC(=O)C12CCC(C)(C(=O)O1)C2(C)C)C(C)(C)O3 (stereo not given in full)	> 157000	–
